Experimental data taken from PubChem BioAssay (NCI).
“And” between values parts separate entries of the source, which are not always exact repeats. Equal values may be shown once.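 Briefly, cells in 96-well plates were exposed to five compound concentrations for 48 h, and endpoints were estimated by linear interpolation. GI50 = concentration required for 50% inhibition of growth. TGI: concentration producing complete growth inhibition.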

Assays:
Test in all cases: growth of human tumour cells (NCI), 48 h
HS 578T breast = system: HS 578T breast
M14 melanoma = system: M14 melanoma
MALME-3M melanoma = system: MALME-3M melanoma
NCI-H226 lung = system: NCI-H226 lung
OVCAR-4 ovarian = system: OVCAR-4 ovarian
SF-268 CNS = system: SF-268 CNS
SNB-75 CNS = system: SNB-75 CNS
T-47D breast = system: T-47D breast
U251 CNS = system: U251 CNS
UACC-257 melanoma = system: UACC-257 melanoma

SMILES | TGI (HS 578T breast) [µM] | TGI (M14 melanoma) [µM] | TGI (MALME-3M melanoma) [µM] | TGI (NCI-H226 lung) [µM] | TGI (OVCAR-4 ovarian) [µM] | TGI (SF-268 CNS) [µM] | TGI (SNB-75 CNS) [µM] | TGI (T-47D breast) [µM] | TGI (U251 CNS) | TGI (UACC-257 melanoma) | GI50 (HS 578T breast) | GI50 (M14 melanoma) | GI50 (MALME-3M melanoma) | GI50 (NCI-H226 lung) | GI50 (OVCAR-4 ovarian) | GI50 (SF-268 CNS) | GI50 (SNB-75 CNS) | GI50 (T-47D breast) | GI50 (U251 CNS) | GI50 (UACC-257 melanoma)
COc1cc(-c2cc(=O)c3c(O)c(OC)c(OC)c(OC)c3o2)cc(OC)c1OC | > 20.7 | > 100 | > 100 | > 80.1 | > 100 | > 100 | 6.2 | > 74.3 | > 22.2 µM | > 100 µM | – | – | – | – | – | – | – | – | – | –
C=CC(C)(O)CC/C=C(\CO)C(=O)OC1C(C)OC(O[C@](C)(C=C)CC/C=C(\CO)C(=O)O[C@H]2C[C@@]3(C(=O)OC4OC(CO)C(O)C(O)C4OC4OC(C)C(OC5OC(CO)C(O)C5O)C(OC5OC(CO)C(O)C(O)C5O)C4O)C(CC2(C)C)C2=CCC4[C@@]5(C)CC[C@H](OC6OC(COC7OC(C)C(O)C(O)C7OC7OCC(O)C(O)C7O)C(O)C(O)C6NC(C)=O)C(C)(C)C5CC[C@@]4(C)[C@]2(C)C[C@H]3O)C(O)C1O (stereo not given in full) | 7.16 | 2.29 | 1.01 | 1.98 | 0.47 | 0.893 | 0.894 | 0.739 | 0.45 µM | 1.47 µM | 0.989 µM | 0.62 µM | 0.261 µM | 0.363 µM | 0.11 µM | 0.174 µM | 0.154 µM | 0.155 µM | 0.101 µM | 0.461 µM
N#C/C(=C\c1ccc2[nH]ccc2c1)C(=O)c1ccc(O)c(O)c1 | > 100 | > 100 | > 100 | > 100 | > 100 | > 100 | > 100 | > 100 | > 100 µM | > 100 µM | – | – | – | – | – | – | – | – | – | –
NNC(=O)C(O)C(O)C(=O)NN (stereo not given) | > 100 | > 100 | > 100 | > 100 | > 100 | > 100 | > 100 | > 100 | > 100 µM | > 100 µM | – | – | – | – | – | – | – | – | – | –
O=C(C=C=Nc1ccccc1)C(=O)N=C=Cc1ccccc1 | 7.31 | 6.46 | 5.33 | 59.8 | 6.41 | 12.1 | 18.5 | 3.94 | 17.3 µM | 5.56 µM | 2.26 µM | 2.16 µM | 1.54 µM | 16.4 µM | 2.15 µM | 3.43 µM | 3.54 µM | 1.62 µM | 5.27 µM | 2.38 µM
O=C(NOCCO)c1cc(CN2OCCCC2=O)c(F)c(F)c1Nc1ccc(I)cc1F | > 100 | 0.0237 | < 0.01 | > 100 | > 90.4 | > 100 | > 100 | > 100 | 23.8 µM and > 10 µM | 0.0393 µM and < 0.0128 µM | 20.6 µM and > 10 µM | < 0.01 µM and 0.00226 µM | < 0.01 µM and 0.00185 µM | 1.89 µM and 9.97 µM | 6.13 µM and > 7.82 µM | 22.6 µM and > 10 µM | 16.4 µM and > 3.83 µM | 29.4 µM and > 10 µM | 0.362 µM and 0.479 µM | < 0.01 µM and 0.00204 µM
COc1cc2c(cc1OCCCOc1ccc(-c3nc4ccc(N5CCN(C)CC5)cc4[nH]3)cc1)N=C[C@@H]1CCCN1C2=O | < 0.01 | < 0.01 | < 0.01 | < 0.01 | 17.2 | – | 11.8 | 15 | 5.07 µM | – | < 0.01 µM | < 0.01 µM | < 0.01 µM | < 0.01 µM | < 0.01 µM | < 0.01 µM | < 0.01 µM | < 0.01 µM | < 0.01 µM | –
Cn1cc(C2=C(c3cn(CCCCC(=N)N)c4ccccc34)C(=O)NC2=O)c2ccccc21 | > 25 | > 25 | > 25 | > 25 | > 25 | > 25 | > 25 | > 25 | > 25 µM | > 25 µM | > 25 µM | > 25 µM | > 25 µM | > 25 µM | > 25 µM | > 25 µM | 1.65 µM | > 25 µM | 17.2 µM | > 25 µM
COc1ccc(C(=O)c2cc3c(N)c(C(=O)Nc4cccc(OC)c4)sc3nc2C)cc1 | > 100 | > 100 | > 100 | > 100 | > 100 | > 100 | > 100 | > 100 | > 100 µM | > 100 µM | 0.546 µM | 0.341 µM | 0.593 µM | 2.99 µM | 3.01 µM | 1.75 µM | 0.541 µM | 4.7 µM | 0.55 µM | > 100 µM
Cc1cc(Nc2nc(-c3ccncc3)nc3ccccc23)n[nH]1 | 7.47 | > 100 | > 100 | > 100 | > 100 | > 100 | – | > 100 | > 100 µM | > 100 µM | 1.36 µM | 10.3 µM | > 100 µM | 13.8 µM | 15.5 µM | 5.62 µM | – | 5 µM | 4.1 µM | 48 µM
CN1CCN(c2ccc3nc(-c4ccc(OCCCCN5CCN(CCCCN6C(=O)c7cccc8cccc(c78)C6=O)CC5)cc4)[nH]c3c2)CC1 | > 100 | > 100 | 42.6 | > 100 | > 100 | > 100 | > 100 | > 100 | > 100 µM | 74.7 µM | 3.39 µM | > 100 µM | 20.9 µM | 37.6 µM | > 100 µM | > 100 µM | 28.9 µM | 31.2 µM | 27.9 µM | 30.3 µM
CN=C(N)N/N=C(\C)c1ccc2c(c1)Cc1ccccc1-2 | – | 3.02 | 3.02 | – | 19.4 | 5.25 | 7.01 | 2.92 | – | 3.74 µM | 3.17 µM | 1.65 µM | 1.51 µM | – | 3.98 µM | 2.13 µM | 2 µM | 1.32 µM | – | 1.96 µM
Cc1cc(Br)cc(C)c1NC(=O)C(=O)Nn1c(=S)[nH]c2ccccc2c1=O | > 100 | > 100 | > 100 | > 100 | > 100 | > 100 | > 100 | > 100 | > 100 µM | > 100 µM | – | – | – | – | – | – | – | – | – | –
COc1cc(/C=N/NC(=O)c2ccccc2Nc2cccc(C(F)(F)F)c2)cc(OC)c1OC | 6.6 | 14.4 | 8.45 | 25.2 | 15.2 | 7.99 | 10.4 | 13.5 | 6.03 µM | 15.4 µM | 0.971 µM | 3.35 µM | 1.75 µM | 7.45 µM | 3.37 µM | 2.05 µM | 1.54 µM | 3.33 µM | 2.28 µM | 4.36 µM
